Results on 3 compounds are retold here after patent US5849777A, “Cell differentiation induction with mevalonate and mevalonolactone derivatives” (University of New Mexico, priority 1995, dated 1998).

The test system of test [1] is canine glioma cells. The test can be described thus: in vivo tumor inhibition: nude rat model. Also noted: species or system Nude Rats (canine glioma cells). As to the method: Fifty four Nude Rats (Harlan) were injected in the right flank with 5×10^6 canine glioma cells. Animals at the time of injection were between 52 and 63 days old and weighed approximately 200 g. The rats were divided into 7 groups, each group having a total number of 7 rats except for the control group, which totalled 12 animals. Compound IIc' was administered to the experimental animals at one of the following dose for each experimental group: 100 μg/kg, 10 μg/kg, 1 μg/kg, 0.1 μg/kg, 0.01 μg/kg and 0.001 μg/kg (phosphate buffer saline, M, W, F, I.P.). The control animals were injected with PBS (phosphate buffered saline) only. The volume of each injection was 100 μl. The injections of drug were simultaneously begun with injection of tumor cells. The animals were injected with the appropriate dosage of drug (1 ng/kg to […]) by I.P. injection and tumor length, width and depth were measured using caliphers each Monday, Wednesday and Friday (M, W, F) morning for approximately 9 weeks. Each point on the graphs represents the total of all rats for each group. […] The data were normalized for the greater number of control animals by multiplying the total tumor volume for the control animals by 7/12.

For test [2], the system named is Human peripheral blood leukocytes. Description: IgG production by human peripheral blood leukocytes (HPBL) in vitro. In kind it is cell-based. The protocol:
Human peripheral blood leukocytes were cultured in a standard tissue culture medium. Aliquots of these cultured cells (1,000,000 cells/ml medium) were cultured for 6 hours, and the specified amount of Formula II compound was added; the cells were then cultured for an additional 90 hours. Sheep red blood cells (SRBC) conditioned with class-specific (IgG) goat anti-human antiserum (1:400) for 2 hours; then guinea pig complement (2%) for 2 hours were conjugated to Protein A as described in detail in Radioimaging and Radioimmunotherapy, Eds. S. W. Burchiel and B. A. Rhodes, Elsevier Science Publishing; New York, 1983, pp. 125-127, incorporated herein by reference.
1. Concentration inhibiting nonspecific IgG production below normal production.

Test [3] has as its target T1, rat liver HMG-COA reductase (Rattus norvegicus, UniProt P51639).
T1 construct: rat liver HMG-COA reductase activity; from tissue; host or cells: rat liver
T1 sequence (P51639 1-887): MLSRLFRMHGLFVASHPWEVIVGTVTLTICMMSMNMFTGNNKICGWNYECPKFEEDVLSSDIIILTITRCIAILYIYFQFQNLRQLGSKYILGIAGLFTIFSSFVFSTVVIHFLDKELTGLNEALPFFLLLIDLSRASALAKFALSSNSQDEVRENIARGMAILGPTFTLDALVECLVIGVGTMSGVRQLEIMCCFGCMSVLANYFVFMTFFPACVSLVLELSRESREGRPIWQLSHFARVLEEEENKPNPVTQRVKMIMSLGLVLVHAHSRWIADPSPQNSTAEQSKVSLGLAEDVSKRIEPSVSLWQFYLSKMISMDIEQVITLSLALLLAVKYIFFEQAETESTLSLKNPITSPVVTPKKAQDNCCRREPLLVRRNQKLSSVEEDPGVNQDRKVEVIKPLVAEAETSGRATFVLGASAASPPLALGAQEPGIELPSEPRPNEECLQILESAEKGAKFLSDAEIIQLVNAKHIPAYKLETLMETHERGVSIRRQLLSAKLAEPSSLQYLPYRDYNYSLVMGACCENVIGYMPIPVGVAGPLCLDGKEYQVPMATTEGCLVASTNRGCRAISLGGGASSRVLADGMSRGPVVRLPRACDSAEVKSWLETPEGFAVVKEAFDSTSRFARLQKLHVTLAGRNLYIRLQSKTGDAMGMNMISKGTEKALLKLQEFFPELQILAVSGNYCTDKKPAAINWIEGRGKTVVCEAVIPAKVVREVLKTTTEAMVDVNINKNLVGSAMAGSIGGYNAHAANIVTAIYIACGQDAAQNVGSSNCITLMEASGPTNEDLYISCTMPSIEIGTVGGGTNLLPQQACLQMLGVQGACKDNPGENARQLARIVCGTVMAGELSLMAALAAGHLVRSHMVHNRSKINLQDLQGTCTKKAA
Description: inhibition of rat liver HMG-CoA reductase activity. Particulars: read-out: IC50 (concentration for 50% inhibition of rat liver HMG-COA reductase activity); Table I. Type of test: biochemical. The text has this:
While a number of the compounds of the Formula I are known HMG-CoA reductase inhibitors, there is no apparent correlation between HMG-CoA reductase inhibitory activity and promotion of differentiation activity according to the invention. […] Accordingly, useful guidelines for selecting compounds having optimal differentiation-promoting activity according to the invention broadly comprise selecting compounds of the Formula I having the specified stereochemical configuration and an in vitro immunological activity as set forth in the in vitro assay of Example II, of at least about 3-fold.

Test [4] deals with CG (canine glioma) cells. The test can be described thus: tumor-specific antibody production in vivo (anti-CG IgG titer). Also noted: species or system dog. The settings on record: treatment 2+ months, tumor regressed. The text has this: Titer of CG-specific antibody was compared to control [no administration of compound IIa' and no implantation of CG (canine glioma) cells]. […] This increase in titer continued with time until tumor regression was noted by independent measurement (NMR evaluation, below).
The results are particularly striking as the experimental tumor (brain glioma) is generally considered to enjoy a privileged position beyond the blood/brain barrier, substantially beyond the reach of the humoral immune system. Experimental protocols are described in detail below (FIGS. 7-9, Example VII).

The test system of test [5] is CG tumor. Description: chromium-release cell-mediated lympholysis (CML) vs CG tumor. In kind it is in vivo, dog. The text has this:
Cellular immune response reflected the results reported in III, 1 above. […] This also is in the absence of CG antigen exposure. […] Thus both cellular and humoral immunity appear to be modulatable in the absence of antigen by the compounds of the instant invention.

In test [6] the test system is Canine glioma. The test can be described thus: in vivo tumor inhibition: canine model. Also noted: species or system dog. The protocol:
Canine glioma was implanted surgically into the brains of four outbred dogs (2×10^6 cells). This procedure normally causes death by tumor growth in 14-28 days.
[…] F) by I.P. injection in phosphate buffered saline.
Tumor progress was assessed at weekly intervals by NMR, employing GdDPTA as imaging agent. This method illuminates vascularization at the surface of the tumor, and provides images which correlate well with neuropathological observations.

On to `CC(C)c1nc(-c2ccccc2)n(-c2ccc(F)cc2)c1/C=C/[C@H](O)C[C@@H](O)CC(=O)O` [Compound IIc'], for which the “optimal dose in vivo, equivalent concentration with uniform distribution” value in test [1] (100 ng/kg) worked out at 250 pM. In test [1] (I.P., M, W, F, approx. 9 weeks (FIG. 3)), the “most effective dosage for inhibition of canine glioma cells” value came to 100 ng/kg. Besides, the cytostatic activity result was “Little or no cytostatic activity” in test [1] (higher doses, 10 and 100 μg/kg I.P.); “Little or no cytostatic activity” in test [1] (lowest dose, 1 ng/kg I.P.). Also, the “optimal dose in vitro (immune stimulation)” value in test [2] (HPBL assay) worked out at 100 pM. Besides, the “Inhibitory Concentration (concentration inhibiting nonspecific IgG production below normal production)” value in test [2] (HPBL, additional 90 h culture) is “none found”. Further, the “immune stimulant (in words)” value in test [2] (see Examples above) is listed as “potent immune stimulant”. In addition, the IC50 in test [3] was 22 nM. The “IC-50% TITER (ANTI-CG)” value in test [4] was “BASELINE VALUES”. The “slope "M" (LINEAR REGRESSION OF TOXICITY), Y = "M"X + B” value in test [5] (December 14, 1987) was determined as 0.05; in test [5] (February 9, 1988), 0.35; in test [5] (February 17, 1988), 0.75; in test [5] (March 31, 1988), 0.05.

In the case of `CC(C)c1nc(-c2ccccc2)n(-c2ccc(F)cc2)c1/C=C/[C@H](O)C[C@H](O)CC(=O)O` [TF-002], in test [6] (10 μg/kg I.P. (data not shown)), the “tumor status, later studies” value is “free of tumor”. Besides, in test [6] (pre-treated, 10 μg/kg I.P. M, W, F after implantation (FIG. 8)), the “small tumor appeared on Day” value amounted to 12 days.

Take `CC(C)c1c(/C=C/C(O)CC(O)CC(=O)O)n(-c2ccc(F)cc2)c2ccccc12` (stereo not shown) [TF-004]: the “tumor visible at Day” value in test [6] (treatment begun on Day 11 (FIG. 9)) was determined as 10 days.
